Values belong to the compound of their own block, whether it stands above or below them.
Tests used:
Test in all cases: UPLC-MS methylation assay, Michaelis-Menten fit
NnOMT6 = target: T1, NnOMT6 (Nelumbo nucifera, UniProt A0A1U7Z1M5); assay type: biochemical; settings: 50 mM potassium phosphate pH 8.0, 37°C, 30 min
T1 construct: gene LOC104585771

[1] = test system: COc1cc2c(cc1O)[C@@H]1Cc3ccc(OC)c(O)c3CN1CC2; assay type: biochemical, Nelumbo nucifera; settings: SAM as methyl donor, 50 mM potassium phosphate pH 8.0, 37°C, 30 min
[2] = test system: COc1c(O)cc2c3c1-c1ccccc1C[C@@H]3NCC2; assay type: biochemical, Nelumbo nucifera; settings: SAM as methyl donor, 50 mM potassium phosphate pH 8.0, 37°C, 30 min

Km (NnOMT6; 200 μM caffeic acid as acceptor): 163 µM
Compound: C[S+](CC[C@H](N)C(=O)O)C[C@H]1O[C@@H](n2cnc3c(N)ncnc32)[C@H](O)[C@@H]1O (some centres unmarked) [SAM]

Km (NnOMT6; 200 μM SAM): 282 µM
Compound: Oc1ccc(C[C@@H]2NCCc3cc(O)c(O)cc32)cc1 [compound 1, (S)-norcoclaurine]

Km (NnOMT6; 200 μM SAM): 216 µM
Compound: O=C(O)/C=C/c1ccc(O)c(O)c1 [compound 16, caffeic acid]

Compound: NnOMT6 (Nelumbo nucifera; N323A)
Km [1]: 86.35 µM | Km [2]: 132.77 µM

— paper PMC9923211, “Functional characterization and key residues engineering of a regiopromiscuity O-methyltransferase involved in benzylisoquinoline alkaloid biosynthesis in Nelumbo nucifera” (Horticulture Research, 2022)
